# Patent US6124347A, “Chromene derivatives and salts thereof, and pharmaceuticals containing the same” (SSP Co., Ltd., priority 1997, dated 2000)
# System: ovolysozyme
# Test: AGE formation inhibitory action (lysozyme dimer formation with xylose, SDS-PAGE, silver staining)
# Type: biochemical
# Conditions: 1 mg/ml ovolysozyme, 100 mM xylose, pH 7.4, 37° C., 21 days; dimer (28.8 Kda) formation relative to control
# Method: With respect to each test compound, solutions of the test compound in dimethyl sulfoxide, said solutions containing said test compound at various concentrations, were each added together with 1 mg/ml of ovolysozyme and 100 mM of xylose to a phosphate-buffered physiological saline of pH 7.4. Each reaction mixture was then incubated at 37° C. for 21 days. A portion of the reaction mixture, said portion being in a predetermined amount, was then separated by sodium lauryl sulfate-polyacrylamide gel electrophoresis (SDS-PAGE). After the electrophoresis, the gel was treated by silver staining to stain proteins. AGE formation inhibitory action of the test compound was calculated in terms of 50% inhibitory concentration by image-processing and analyzing the degree of formation of the dimer (28.8 Kda) of lysozyme (14.4 Kda) relative to that in a control, that is, a reaction mixture not added with the test compound while making use of NIH Image Ver. 1.55.
row,SMILES,"IC50 (AGE formation inhibitory action, 50% inhibitory concentration)"
1,COc1cccc2c1OCC(CNCC(O)c1ccc(O)c(O)c1)=C2 (stereo not shown) [Compound 15],3 µg/mL
2,"COc1cc(C(O)CNCC2=Cc3ccccc3OC2)cc(OC)c1O (stereo not shown) [Compound 9, 4-{2-[(2H-3-chromenylmethyl)amino]-1-hydroxyethyl}-2,6-dimethoxyphenol]",30 µg/mL
3,Oc1cccc(C(O)CNCC2=Cc3ccccc3OC2)c1 (stereo not shown) [Compound 6],10 µg/mL
4,"N=C(N)NN [Amionoguanidine, aminoguanidine, reference compound]",30 µg/mL
